Experimental data: patent US20110059076A1, “HUMAN SERUM ALBUMIN LINKERS AND CONJUGATES THEREOF” (priority 2008, published 2011)
Several values for one entry are separate records, joined by “and”; a condition that tells them apart may be missing. Equal entries are not always repeated. Entries after “also recorded” stand apart in the source; their conditions may differ.

Tests used:
[1] = system: MALME-3M melanoma cells (ErbB2 and ErbB3 receptors); assay: cell binding by flow cytometry, apparent binding affinity; conditions: MALME-3M cells
Method: Cell binding is assessed by flow cytometry and apparent binding affinities are determined for each molecule. Control cells are incubated with secondary antibody alone.

[2] = system: signaling proteins in BT474 breast cancer cells; assay: Western blot of signaling proteins in BT474 cells; type: cell-based; conditions: BT474, dose range 24 hours, heregulin stimulation
Method: Levels of pErbB2, pErbB3, pErk and pAKT and their corresponding total protein levels are determined on cell lysates by Western blot analysis.

[3] = system: wild type ADRr xenografts; assay: wild type ADRr breast cancer xenograft model; type: in vivo, nude mice; conditions: 30 mg/kg every 3 days
ADRr-E2 xenografts = assay: ADRr-E2 (ErbB2 over-expressing) xenograft model; type: in vivo, nude mice; conditions: ADRr-E2, 30 mg/kg every 3 days
Excerpt: ErbB2 is over-expressed in ADRr breast cancer cells using a retroviral expression system. Transfected cells expressing high levels of ErbB2 (ADRr-E2) are selected using FACS and subsequently injected subcutaneously into nude mice to establish xenograft tumors.

[4] = system: AKT phosphorylation in ZR75-30 cells; assay: HRG-induced AKT phosphorylation ELISA in ZR75-30; type: cell-based, human; conditions: ZR75-30, dose titration 24 hours, 5 nM HRG 1β EGF domain 10 minutes
[5] = system: pAKT in BT-474-M3 xenografts that have reduced PTEN activity; assay: pAKT Western blot of PTEN deficient BT-474-M3 xenograft tumors; type: in vivo; conditions: 30 mg/kg B2B3-1 every 3 days or 10 mg/kg trastuzumab weekly
Excerpt: Equal quantities of protein are loaded in each lane and total protein levels are controlled by probing for PCNA.

[6] = single dose pharmacokinetics in nu/nu mice; type: in vivo; conditions: for AUC / Clearance / T½β: Mouse (single dose)
Method: Blood is collected pre-dose and at 0.5, 4, 8, 24, 48, 72, and 120 hours post dose. Three mice are used for each time point. […] The HSA ELISA utilizes a polyclonal-anti HSA capture antibody and a HRP-conjugated polyclonal anti-HSA detection antibody.

[7] = system: p27^kip1 in BT474-M3 breast tumor xenografts; assay: p27kip1 staining of xenograft tumors; type: in vivo; conditions: 30 mg/kg every 3 days, 4 doses
[8] = system: human BT-474-M3 xenografts; assay: dose response in BT-474-M3 breast cancer xenograft model; type: in vivo, nude mice; conditions: 0.3, 1, 3, 10, 30 or 90 mg/kg i.p. every 3 days, 12 doses
Method: All doses are administered interperitoneally (i.p.). Tumor size is measured twice a week and the corresponding tumor volume is calculated.

[9] = system: SKOV-3 (human ovarian adenocarcinoma) xenograft; assay: SKOV-3 xenograft model; type: in vivo, mice; conditions: SKOV-3, 30 mg/kg every 3 days
Excerpt: (§1) Calu-3 (human lung adenocarcinoma; FIG. 17A), SKOV-3 (human ovarian adenocarcinoma; FIG. 17B), NCI-N87 (human gastric carcinoma; FIG. 17C), ACHN (human kidney adenocarcinoma; FIG. 17D), and MDA-MB-361 (human breast adenocarcinoma; FIG. 17E) xenograft model are shown.

ErbB3 = ErbB3 (Homo sapiens, UniProt P04626+P21860); assay: inhibition of ligand-induced phosphorylation of ErbB3 (general statement); type: cell-based
[10] = system: ErbB3 phosphorylation in 9 tumor cell lines; assay: pErbB3 inhibition ELISA across 9 tumor cell lines versus ErbB2 expression; type: cell-based; conditions: 5×10^4 to 2.4×10^6 ErbB2 receptors/cell
[11] = target: T1, ErbB2-associated complexes in BT474 breast cancer cells (Homo sapiens, UniProt P04626+P21860); assay: immunoprecipitation-Western blot of ErbB2-associated complexes; type: cell-based; conditions: BT474, dose range 24 hours, heregulin stimulation
T1 construct: endogenous in cells; host or cells: BT474 breast cancer cells
Excerpt: ErbB2-associated complexes are isolated from cell lysates using an anti-ErbB2 antibody followed by Western blot analysis to detect pErbB2 and pErbB3 and the corresponding total protein levels.

[12] = system: p27^kip1 in BT474-M3 breast tumor cells; assay: p27kip1 sub-cellular location by immunofluorescence; type: cell-based; conditions: 1 μM, 6 hours
Method: The sub-cellular location of p27^kip1 is assessed using immunofluorescence techniques.

[13] = system: BT-474-M3 xenograft tumors; assay: q7d versus q3d dosing in BT-474-M3 xenografts; type: in vivo, athymic nude mice (nu/nu); conditions: intraperitoneal
Method: Mice receive a subcutaneous estrogen-releasing implant in the opposite flank (0.72 mg pellet, 60 day, slow-release, Innovative Research of America, Sarasota, Fla.) 24 h prior to the injection of 20×10^6 human BT-474-M3cells in PBS. […] Tumors are measured twice a week using digital calipers. Tumor volume is calculated using the formula: π/6×(W^2×L), where W is the short diameter and L is the long diameter. […] PBS vehicle is used as a negative control.

BT474 breast tumor cells = assay: cell cycle analysis by propidium iodide flow cytometry; type: cell-based; conditions: 72 hours treatment
Method: After the end of treatment, cells are trypsinized, gently resuspended in hypotonic solution containing propidium iodide and single cells are analyzed by flow cytometry. Cell cycle distribution in G1 and S phases is measured using curve-fitting algorithms designed for cell cycle analysis (FlowJo software cell cycle platform).
After the end of treatment, cells are trypsinized, gently resuspended in hypotonic solution containing propidium iodide and single cells are analyzed by flow cytometry. Cell cycle distribution in G1 and S phases is measured using curve-fitting algorithms designed for cell cycle analysis (FlowJo software cell cycle platform, Tree Star, Inc.). […] In a second experiment, the number of cell colonies formed following treatment with B2B3-1 is studied. […] Media only or media including treatment is replenished every 3 days. After 14 days the number of colonies is counted and compared to untreated cells.

[14] = system: BT-474-M3 shPTEN xenografts; assay: BT-474-M3 shPTEN xenografts (reduced PTEN activity); type: in vivo, nude mice; conditions: 30 mg/kg B2B3-1 every 3 days or 10 mg/kg trastuzumab every week, i.p.
Method: ShRNA technology is applied to knock out the activity of the tumor suppressor gene phosphatase and tensin homolog (PTEN) in BT-474-M3 breast cancer cells. Briefly, cultured BT-474-M3 cells are transfected with shPTEN or shControl RNA by retroviral transfection. Transfected cells with reduced PTEN are selected using FACS and subsequently injected subcutaneously into the right flank of nude mice to establish xenograft tumors. Cells transfected with a control vector are injected into the left flank of the same mouse. […] All injections are done i.p.

BT-474-M3 xenograft = assay: combination with trastuzumab in BT-474-M3 xenograft model; type: in vivo, athymic nude mice (nu/nu); conditions: single agent
Method: Mice receive a subcutaneous estrogen-releasing implant in the opposite flank (0.72 mg pellet, 60 day, slow-release, Innovative Research of America, Sarasota, Fla.) 24 h prior to the injection of 20×10^6 human BT-474-M3cells in PBS. Dosing is initiated when tumor growth is established (tumor volumes of approximately 400 mm^3). Tumors are measured twice a week using digital calipers. Tumor volume is calculated using the formula: π/6×(W^2×L), where W is the short diameter and L is the long diameter.

[15] = system: ACHN (human kidney adenocarcinoma) xenograft; assay: ACHN xenograft model; type: in vivo, mice; conditions: ACHN (4.5×10^4 ErbB2 receptors/cell), 30 mg/kg every 3 days
Excerpt: as §1

For “B2B3-1: bispecific scFv antibody fusion: anti-ErbB3 scFv H3 and anti-ErbB2 scFv B1D2 joined by a modified human serum albumin (HSA) linker”, the “apparent binding affinity KD” value [1] was “significant increase in apparent binding affinity”, the “levels of pErbB2” value [2] was “reduced in a dose-dependent manner” and the “levels of pErbB3” value [2] was “reduced in a dose-dependent manner”. For the same substance, the xenograft response [3] was “no response; also recorded: non-responder”, the xenograft response (ADRr-E2 xenografts) was “responded; also recorded: responder” and the “inhibition of HRG induced AKT phosphorylation” value [4] was “inhibits”. The “pAKT in tumors (densitometry of Western blot)” value [5] was “significantly less pAKT; also recorded: able to inhibit phosphorylation”, the AUC ([6]; 5 mg/kg IV) was 1.58E+03 hr-μg/ml and the Clearance ([6]; 5 mg/kg IV) was 3.19 mL/h/kg. For the same substance, the T½β ([6]; 5 mg/kg IV, 5 mg/kg) was 17 h and 16.9 h, the AUC ([6]; 15 mg/kg IV) was 6.10E+03 hr-μg/ml and the Clearance ([6]; 15 mg/kg IV) was 2.47 mL/h/kg. The T½β ([6]; 15 mg/kg IV, 15 mg/kg) was 16 h and 16.2 h, the AUC ([6]; 30 mg/kg IV) was 1.18E+04 hr-μg/ml and the Clearance ([6]; 30 mg/kg IV) was 2.54 mL/h/kg. For the same substance, the T½β ([6]; 30 mg/kg IV, 30 mg/kg) was 23 h and 22.6 h, the AUC ([6]; 45 mg/kg IV) was 1.84E+04 hr-μg/ml and the Clearance ([6]; 45 mg/kg IV) was 2.46 mL/h/kg. The T½β ([6]; 45 mg/kg IV, 45 mg/kg) was 18 h and 17.5 h, the dose-exposure relationship ([6]; nu/nu mice, 5, 15, 30 and 45 mg/kg bolus doses) was “linear increase in overall exposure” and the “nuclear staining for p27^kip1 compared to HSA control tumors” value [7] was “Increased nuclear staining; also recorded: translocation of p27^kip1 to the nucleus”. The complete regressions [8] was “Complete regressions were observed in each of the B2B3-1 treatment groups except mice treated with the lowest dose”, the “tumor size compared to the control group” value [8] was “significant reduction” and the tumor size reduction [9] was “efficacious”. For the same substance, the “potency of inhibition of ligand-induced phosphorylation of ErbB3” value (ErbB3) was “sub-nanomolar”, the “% pErbB3 inhibition in relation to ErbB2 expression levels” value [10] was “correlates positively” and the “ErbB3 and phospho-ErbB3 precipitated by the anti-ErbB2 antibody” value [11] was “crosslinks ErbB2 to ErbB3”. For the same substance, the “sub-cellular location of p27^kip1” value [12] was “translocated to the nucleus; also recorded: translocation of cell cycle inhibitor p27^kip1 to the nucleus”, the “efficacy of q7d dosing (66, 132, 198 mg/kg) versus 30 mg/kg q3d” value [13] was “equivalent efficacy” and the “population of cells in G1 phase” value (BT474 breast tumor cells) was “increase; also recorded: G1 arrest”. The “population of cells in S phase” value (BT474 breast tumor cells) was “modestly decrease”, the “size of tumors formed by BT-474-M3 cells lacking expression of PTEN” value [14] was “promoted a reduction” and the “mice with completely regressed tumors” value (BT-474-M3 xenograft; B2B3-1 3 mg/kg q3d) was 0 out of 10. For the same substance, the “mice with completely regressed tumors” value (BT-474-M3 xenograft; B2B3-1 10 mg/kg q3d) was 0 out of 10 and the tumor size reduction [15] was “worked less well”.
